Some results are limits rather than exact numbers.

One may read the IC50 as the concentration at which inhibition is half-maximal.

T1 sequence (P09874 whole entry): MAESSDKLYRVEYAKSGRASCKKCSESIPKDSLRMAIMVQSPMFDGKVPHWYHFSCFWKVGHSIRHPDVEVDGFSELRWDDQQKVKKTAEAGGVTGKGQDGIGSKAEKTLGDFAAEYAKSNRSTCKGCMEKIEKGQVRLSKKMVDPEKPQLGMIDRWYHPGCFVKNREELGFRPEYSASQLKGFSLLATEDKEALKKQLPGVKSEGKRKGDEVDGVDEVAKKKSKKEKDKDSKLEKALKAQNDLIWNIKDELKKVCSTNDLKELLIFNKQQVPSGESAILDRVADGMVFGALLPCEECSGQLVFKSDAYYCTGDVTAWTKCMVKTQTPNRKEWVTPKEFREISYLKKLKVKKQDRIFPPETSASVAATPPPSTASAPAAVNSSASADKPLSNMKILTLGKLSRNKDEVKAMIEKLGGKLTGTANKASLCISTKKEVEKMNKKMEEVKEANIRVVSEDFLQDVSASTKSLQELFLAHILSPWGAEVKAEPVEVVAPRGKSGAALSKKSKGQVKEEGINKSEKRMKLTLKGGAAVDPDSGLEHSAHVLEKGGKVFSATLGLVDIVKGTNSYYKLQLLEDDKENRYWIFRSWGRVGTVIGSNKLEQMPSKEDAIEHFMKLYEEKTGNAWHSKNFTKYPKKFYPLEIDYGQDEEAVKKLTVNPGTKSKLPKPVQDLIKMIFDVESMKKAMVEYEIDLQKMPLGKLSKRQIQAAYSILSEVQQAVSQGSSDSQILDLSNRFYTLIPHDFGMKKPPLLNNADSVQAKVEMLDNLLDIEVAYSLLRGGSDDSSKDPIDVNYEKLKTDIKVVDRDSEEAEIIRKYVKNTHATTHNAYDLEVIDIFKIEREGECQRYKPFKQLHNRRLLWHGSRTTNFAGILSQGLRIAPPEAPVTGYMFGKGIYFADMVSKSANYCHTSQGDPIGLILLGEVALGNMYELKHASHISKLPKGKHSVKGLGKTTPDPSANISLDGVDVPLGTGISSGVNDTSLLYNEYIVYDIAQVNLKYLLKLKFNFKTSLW

This assay has as its target T1, PARP1 (Homo sapiens, UniProt P09874).
T1 construct: purchased BPS 80580
Put plainly: PARP1 Colorimetric Assay (PARP-1 kinase inhibitory activity). It counts as biochemical. To be noted: PARP1 colorimetric assay kit, 1 hour at room temperature; read-out: PARP1 (in vitro enzymatic inhibitory activity, IC50). The protocol:
PARP1 kinase activity was tested by the following method:
PARP1 Colorimetric Assay Kit (BPS, Cat #80580)
1. PARP1 Colorimetric Assay
2) 50 μL of diluted coating solution was added to each well for overnight at 4° C.
4) 200 μL of blocking buffer was added to each well and incubated at room temperature for 90 minutes.
1) A reaction solution was prepared in a ratio of […] 2.5 μL 10×PARP buffer+2.5 μL 10×PARP Assay mixture+5 μL Activated DNA+15 μL deionized water per well, and 25 μL of the reaction solution was added to each well (see Table 1).
4) 100 μL of colorimetric HRP substrate was added to each well and reacted at room temperature for 20 minutes.
5) 100 μL of 2 M H2SO4 was added to each well and OD 450 nm was read on a microplate reader.
For the compound `[2H][C@@]1(c2ccc(-n3nc4c(C(N)=O)cccc4c3F)cc2)CCCNC1` [Example 12], the IC50 lay within 100 to 500 nM. For the compound `C[C@@]1(c2ccc(-n3nc4c(C(N)=O)cccc4c3F)cc2)CCCNC1` [Example 54], the IC50 is 500 to 1000 nM. On to `NC(=O)c1c(F)ccc2cn(-c3ccc([C@@]4(F)CCCNC4)cc3)nc12` [Example 39], for which the IC50 lay in the range of 100 to 500 nM. The figure for `CC1(c2ccc(-n3cc4cccc(C(N)=O)c4n3)cc2F)CCCNC1` (stereo not shown) [Example 49] is 100 to 500 nM; for `NC(=O)c1cccc2c(F)n(-c3ccc([C@]4(F)CCCNC4)cc3)nc12` [Example 30] it is below 100 nM; for `[2H][C@]1(c2ccc(-n3cc4cc(F)cc(C(N)=O)c4n3)c(F)c2)CCCNC1` [Example 21] it is below 100 nM.

Regarding `[2H][C@]1(c2ccc(-n3cc4cccc(C(N)=O)c4n3)cc2F)CCCNC1` [Example 8], the IC50 is below 100 nM. With `CC1(c2ccc(-n3cc4cccc(C(N)=O)c4n3)c(F)c2)CCCNC1` (stereo not shown) [Example 55], the IC50 is 100 to 500 nM.

As to `[2H]C1(c2ccc(-n3cc4cc(F)cc(C(N)=O)c4n3)c(F)c2)CCCNC1` (stereo not shown) [Example 19], the IC50 is below 100 nM. In the case of `NC(=O)c1cc(F)cc2cn(-c3ccc(C4(F)CCCNC4)cc3)nc12` (stereo not shown) [Example 25] it was below 100 nM. `NC(=O)c1cccc2cn(-c3ccc(C4(F)CCCNC4)c(F)c3)nc12` (stereo not shown) [Example 28]: the IC50 is below 100 nM.

With `[2H][C@]1(c2ccc(-n3nc4c(C(N)=O)cccc4c3F)cc2)CCCNC1` [Example 11], the IC50 fell in the range of 100 to 500 nM. Regarding `NC(=O)c1cccc2c(F)n(-c3ccc([C@@]4(F)CCCNC4)cc3)nc12` [Example 32], the IC50 was in the range of 100 to 500 nM. In the case of `NC(=O)c1ccc(F)c2cn(-c3ccc([C@]4(F)CCCNC4)cc3)nc12` [Example 41] it was 100 to 500 nM. In the case of `[2H]C1(c2ccc(-n3cc4cc(F)cc(C(N)=O)c4n3)cc2F)CCCNC1` (stereo not shown) [Example 16] it was below 100 nM; in that of `NC(=O)c1cc(F)cc2cn(-c3ccc([C@]4(F)CCCNC4)cc3)nc12` [Example 26], below 100 nM; in that of `[2H][C@@]1(c2ccc(-n3cc4cccc(C(N)=O)c4n3)cc2F)CCCNC1` [Example 9], below 100 nM. The figure for `[2H]C1(c2ccc(-n3nc4c(C(N)=O)cccc4c3F)cc2)CCCNC1` (stereo not shown) [Example 10] is 100 to 500 nM; for `C[C@@]1(c2ccc(-n3cc4cccc(C(N)=O)c4n3)cc2F)CCCNC1` [Example 51] it is 100 to 500 nM.

For `C[C@]1(c2ccc(-n3cc4cccc(C(N)=O)c4n3)cc2)CCCNC1` (single isomer, unassigned) [Example 45, (R or S)-2-(4-(3-methylpiperidin-3-yl)phenyl)-2H-indazole-7-carboxamide], the IC50 was 100 to 500 nM.

For the compound `[2H]C1(c2ccc(-n3cc4cccc(C(N)=O)c4n3)cc2F)CCCNC1` (stereo not shown) [Example 7], the IC50 was below 100 nM. `NC(=O)c1cccc2cn(-c3ccc([C@@]4(F)CCCNC4)c(F)c3)nc12` [Example 29]: the IC50 is below 100 nM.

For the compound `[2H][C@]1(c2ccc(-n3cc4cccc(C(N)=O)c4n3)c(F)c2)CCCNC1` [Example 14], the IC50 was in the range of 100 to 500 nM. The figure for `NC(=O)c1cccc2cn(-c3ccc(C4(F)CCCNC4)cc3F)nc12` (stereo not shown) [Example 34] is 100 to 500 nM; for `C[C@]1(c2ccc(-n3cc4cccc(C(N)=O)c4n3)c(F)c2)CCCNC1` [Example 56] it is 100 to 500 nM; for `NC(=O)c1cccc2cn(-c3ccc(C4(F)CCCNC4)cc3)nc12` (racemic) [Example 22, 2-(4-(3-Fluoropiperidin-3-yl)phenyl)-2H-indazole-7-carboxamide] it is below 100 nM.

Regarding `NC(=O)c1c(F)ccc2cn(-c3ccc(C4(F)CCCNC4)cc3)nc12` (stereo not shown) [Example 37], the IC50 was 100 to 500 nM. The figure for `[2H][C@@]1(c2ccc(-n3cc4cc(F)cc(C(N)=O)c4n3)c(F)c2)CCCNC1` [Example 20] is below 100 nM; for `[2H]C1(c2ccc(-n3cc4cccc(C(N)=O)c4n3)c(F)c2)CCCNC1` (stereo not shown) [Example 13] it is 100 to 500 nM. The figure for `NC(=O)c1cccc2cn(-c3ccc([C@]4(F)CCCNC4)cc3F)nc12` [Example 36] is 100 to 500 nM; for `[2H][C@@]1(c2ccc(-n3cc4cc(F)cc(C(N)=O)c4n3)cc2F)CCCNC1` [Example 17] it is below 100 nM. As to `NC(=O)c1cccc2cn(-c3ccc([C@@]4(F)CCCNC4)cc3F)nc12` [Example 35], the IC50 lay within 100 to 500 nM. The figure for `NC(=O)c1cccc2c(F)n(-c3ccc(C4(F)CCCNC4)cc3)nc12` (stereo not shown) [Example 31] is 100 to 500 nM; for `C[C@]1(c2ccc(-n3cc4cc(F)cc(C(N)=O)c4n3)cc2)CCCNC1` [Example 48] it is 100 to 500 nM. In the case of `[2H][C@@]1(c2ccc(-n3cc4cccc(C(N)=O)c4n3)c(F)c2)CCCNC1` [Example 15] it was 100 to 500 nM. For the compound `C[C@@]1(c2ccc(-n3cc4cc(F)cc(C(N)=O)c4n3)cc2)CCCNC1` [Example 47], the IC50 is 100 to 500 nM. In the case of `C[C@]1(c2ccc(-n3cc4cccc(C(N)=O)c4n3)cc2)CCCNC1` [Example 44, (R or S)-2-(4-(3-methylpiperidin-3-yl)phenyl)-2H-indazole-7-carboxamide] it was 100 to 500 nM; in that of `NC(=O)c1ccc(F)c2cn(-c3ccc(C4(F)CCCNC4)cc3)nc12` (stereo not shown) [Example 40], 100 to 500 nM; in that of `C[C@@]1(c2ccc(-n3cc4cccc(C(N)=O)c4n3)c(F)c2)CCCNC1` [Example 57], 100 to 500 nM. In the case of `CC1(c2ccc(-n3cc4cccc(C(N)=O)c4n3)cc2)CCCNC1` (racemic) [Example 43, 2-(4-(3-Methylpiperidin-3-yl)phenyl)-2H-indazole-7-carboxamide] it was 100 to 500 nM; in that of `[2H][C@@]1(c2ccc(-n3cc4cc(F)cc(C(N)=O)c4n3)cc2)CCCNC1` [Example 5], below 100 nM. The figure for `NC(=O)c1c(F)ccc2cn(-c3ccc([C@]4(F)CCCNC4)cc3)nc12` [Example 38] is 100 to 500 nM. With `C[C@]1(c2ccc(-n3cc4cccc(C(N)=O)c4n3)cc2F)CCCNC1` [Example 50], the IC50 lay in the range of 100 to 500 nM. With `NC(=O)c1cccc2c(F)n(-c3ccc([C@]4(F)CCCNC4)cc3)nc12` [Example 33], the 50% inhibitory concentration (IC50) lay in the range of 100 to 500 nM. The figure for `CC1(c2ccc(-n3nc4c(C(N)=O)cccc4c3F)cc2)CCCNC1` (stereo not shown) [Example 52] is 500 to 1000 nM; for `CC1(c2ccc(-n3cc4cc(F)cc(C(N)=O)c4n3)cc2)CCCNC1` (stereo not shown) [Example 46] it is 100 to 500 nM; for `[2H]C1(c2ccc(-n3cc4cc(F)cc(C(N)=O)c4n3)cc2)CCCNC1` (stereo not shown) [Example 4] it is below 100 nM.

`NC(=O)c1cc(F)cc2cn(-c3ccc([C@@]4(F)CCCNC4)cc3)nc12` [Example 27]: the IC50 is below 100 nM. `C[C@]1(c2ccc(-n3nc4c(C(N)=O)cccc4c3F)cc2)CCCNC1` [Example 53]: the IC50 is 500 to 1000 nM. In the case of `NC(=O)c1ccc(F)c2cn(-c3ccc([C@@]4(F)CCCNC4)cc3)nc12` [Example 42], the IC50 lay within 100 to 500 nM. In the case of `[2H][C@]1(c2ccc(-n3cc4cc(F)cc(C(N)=O)c4n3)cc2F)CCCNC1` [Example 18] it was below 100 nM. In the case of `[2H][C@]1(c2ccc(-n3cc4cc(F)cc(C(N)=O)c4n3)cc2)CCCNC1` [Example 6] it was below 100 nM.

For the origin of these results see patent publication US11072596B2, “Poly(ADP-ribose) polymerase inhibitor, preparation method and use” (SELECTION BIOSCIENCE LLC, priority 2017, dated 2021).
